Assay results as given in ChEMBL document CHEMBL1201862, “PubChem BioAssay data set” (2004).
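Results reflect a 48-hour exposure of cells in 96-well plates to compound at five concentrations. GI50 = concentration required for 50% inhibition of growth.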 Active and inactive are the calls of the source. Rule as the data show it: active = GI50 up to about 1.1 µM and inactive = higher.

Columns and labels:
Experiment in all cases: NCI anticancer screen, dose series, 48 h
SW-620 = test system: SW-620
SNB-19 = test system: SNB-19
SN12C = test system: SN12C
M14 = test system: M14
RPMI-8226 = test system: RPMI-8226
Hs-578T = test system: Hs-578T
T47D = test system: T47D
NCI/ADR-RES = test system: NCI/ADR-RES
DU-145 = test system: DU-145
OVCAR-3 = test system: OVCAR-3
SK-MEL-5 = test system: SK-MEL-5
K562 = test system: K562
A498 = test system: A498
COLO 205 = test system: COLO 205
UO-31 = test system: UO-31
OVCAR-5 = test system: OVCAR-5
U-251 = test system: U-251
HCT-15 = test system: HCT-15
HOP-92 = test system: HOP-92
NCI-H522 = test system: NCI-H522
CCRF-CEM = test system: CCRF-CEM
SR = test system: SR
HL-60 = test system: HL-60
OVCAR-4 = test system: OVCAR-4
SK-MEL-28 = test system: SK-MEL-28
PC-3 = test system: PC-3
NCI-H226 = test system: NCI-H226
HCT-116 = test system: HCT-116
MCF7 = test system: MCF7
MOLT-4 = test system: MOLT-4
HT-29 = test system: HT-29
RXF 393 = test system: RXF 393
EKVX = test system: EKVX
SF-295 = test system: SF-295
OVCAR-8 = test system: OVCAR-8
HCC 2998 = test system: HCC 2998
UACC-257 = test system: UACC-257
KM12 = test system: KM12
NCI-H460 = test system: NCI-H460
SK-OV-3 = test system: SK-OV-3
SF-539 = test system: SF-539
MDA-N = test system: MDA-N
UACC-62 = test system: UACC-62
SF-268 = test system: SF-268
CAKI-1 = test system: CAKI-1
ACHN = test system: ACHN
SNB-75 = test system: SNB-75
MDA-MB-231 = test system: MDA-MB-231
Malme-3M = test system: Malme-3M
TK-10 = test system: TK-10
IGROV-1 = test system: IGROV-1
BT-549 = test system: BT-549
A549 = test system: A549
MDA-MB-435 = test system: MDA-MB-435
SK-MEL-2 = test system: SK-MEL-2
786-0 = test system: 786-0
NCI-H23 = test system: NCI-H23
LOX IMVI = test system: LOX IMVI
HOP-62 = test system: HOP-62

## C1OCN2c3nonc3N3COCN4c5nonc5N1C2C43 (configuration not stated)
SW-620
  GI50: > 100 µM (inactive)
SNB-19
  GI50: > 100 µM (inactive)
SN12C
  GI50: > 100 µM (inactive)
M14
  GI50: > 100 µM (inactive)
RPMI-8226
  GI50: > 100 µM (inactive)
Hs-578T
  GI50: > 100 µM (inactive)
T47D
  GI50: > 100 µM (inactive)
NCI/ADR-RES
  GI50: > 100 µM (inactive)
DU-145
  GI50: > 100 µM (inactive)
OVCAR-3
  GI50: > 100 µM (inactive)
SK-MEL-5
  GI50: > 100 µM (inactive)
K562
  GI50: 78 µM (inactive)
A498
  GI50: > 100 µM (inactive)
COLO 205
  GI50: 40.3 µM (inactive)
UO-31
  GI50: > 100 µM (inactive)
OVCAR-5
  GI50: > 100 µM (inactive)
U-251
  GI50: > 100 µM (inactive)
HCT-15
  GI50: 65.9 µM
HOP-92
  GI50: > 100 µM (inactive)
NCI-H522
  GI50: > 100 µM (inactive)
CCRF-CEM
  GI50: 77.8 µM (inactive)
SR
  GI50: > 100 µM (inactive)
HL-60
  GI50: 83.4 µM (inactive)
OVCAR-4
  GI50: > 100 µM (inactive)
SK-MEL-28
  GI50: > 100 µM (inactive)
PC-3
  GI50: > 100 µM (inactive)
NCI-H226
  GI50: > 100 µM (inactive)
HCT-116
  GI50: 57.4 µM (inactive)
MCF7
  GI50: 49.1 µM (inactive)
MOLT-4
  GI50: 50.1 µM (inactive)
HT-29
  GI50: 31.1 µM (inactive)
RXF 393
  GI50: > 100 µM (inactive)
EKVX
  GI50: > 100 µM (inactive)
SF-295
  GI50: > 100 µM (inactive)
OVCAR-8
  GI50: > 100 µM (inactive)
HCC 2998
  GI50: 68.4 µM (inactive)
UACC-257
  GI50: > 100 µM (inactive)
KM12
  GI50: 49.2 µM (inactive)
NCI-H460
  GI50: > 100 µM (inactive)
SK-OV-3
  GI50: > 100 µM (inactive)
SF-539
  GI50: > 100 µM (inactive)
MDA-N
  GI50: 62.8 µM (inactive)
UACC-62
  GI50: > 100 µM (inactive)
SF-268
  GI50: > 100 µM (inactive)
CAKI-1
  GI50: > 100 µM (inactive)
ACHN
  GI50: > 100 µM (inactive)
SNB-75
  GI50: > 100 µM (inactive)
MDA-MB-231
  GI50: > 100 µM (inactive)
Malme-3M
  GI50: > 100 µM (inactive)
TK-10
  GI50: > 100 µM (inactive)
IGROV-1
  GI50: > 100 µM (inactive)
BT-549
  GI50: > 100 µM (inactive)
A549
  GI50: > 100 µM (inactive)
MDA-MB-435
  GI50: > 100 µM (inactive)
SK-MEL-2
  GI50: > 100 µM (inactive)
786-0
  GI50: > 100 µM (inactive)
NCI-H23
  GI50: > 100 µM (inactive)

## Nc1ncnc2c1nc(-c1ccccc1)n2C1OC(CO)C(O)C1O (configuration not stated)
SW-620
  GI50: > 100 µM (inactive)
SNB-19
  GI50: > 100 µM (inactive)
SN12C
  GI50: > 100 µM (inactive)
M14
  GI50: > 100 µM (inactive)
RPMI-8226
  GI50: > 100 µM (inactive)
Hs-578T
  GI50: > 100 µM (inactive)
T47D
  GI50: > 100 µM (inactive)
NCI/ADR-RES
  GI50: > 100 µM (inactive)
DU-145
  GI50: > 100 µM (inactive)
OVCAR-3
  GI50: > 100 µM (inactive)
SK-MEL-5
  GI50: > 100 µM (inactive)
K562
  GI50: > 100 µM (inactive)
A498
  GI50: > 100 µM (inactive)
COLO 205
  GI50: > 100 µM (inactive)
UO-31
  GI50: > 100 µM (inactive)
OVCAR-5
  GI50: > 100 µM (inactive)
U-251
  GI50: > 100 µM (inactive)
HCT-15
  GI50: > 100 µM
HOP-92
  GI50: > 100 µM (inactive)
NCI-H522
  GI50: > 100 µM (inactive)
LOX IMVI
  GI50: > 100 µM (inactive)
SR
  GI50: > 100 µM (inactive)
HL-60
  GI50: > 100 µM (inactive)
OVCAR-4
  GI50: > 100 µM (inactive)
SK-MEL-28
  GI50: > 100 µM (inactive)
PC-3
  GI50: > 100 µM (inactive)
NCI-H226
  GI50: > 100 µM (inactive)
HCT-116
  GI50: > 100 µM (inactive)
MCF7
  GI50: > 100 µM (inactive)
MOLT-4
  GI50: > 100 µM (inactive)
HT-29
  GI50: > 100 µM (inactive)
RXF 393
  GI50: > 100 µM (inactive)
EKVX
  GI50: > 100 µM (inactive)
SF-295
  GI50: > 100 µM (inactive)
OVCAR-8
  GI50: > 100 µM (inactive)
HCC 2998
  GI50: > 100 µM (inactive)
UACC-257
  GI50: > 100 µM (inactive)
KM12
  GI50: 86.7 µM (inactive)
HOP-62
  GI50: > 100 µM (inactive)
NCI-H460
  GI50: > 100 µM (inactive)
SK-OV-3
  GI50: > 100 µM (inactive)
SF-539
  GI50: > 100 µM (inactive)
MDA-N
  GI50: > 100 µM (inactive)
UACC-62
  GI50: > 100 µM (inactive)
SF-268
  GI50: > 100 µM (inactive)
CAKI-1
  GI50: > 100 µM (inactive)
ACHN
  GI50: > 100 µM (inactive)
SNB-75
  GI50: > 100 µM (inactive)
MDA-MB-231
  GI50: > 100 µM (inactive)
TK-10
  GI50: > 100 µM (inactive)
IGROV-1
  GI50: > 100 µM (inactive)
BT-549
  GI50: > 100 µM (inactive)
A549
  GI50: > 100 µM (inactive)
MDA-MB-435
  GI50: > 100 µM (inactive)
SK-MEL-2
  GI50: > 100 µM (inactive)
786-0
  GI50: > 100 µM (inactive)
NCI-H23
  GI50: > 100 µM (inactive)

## C[C@H](CCC(=O)NCCS(=O)(=O)O)[C@H]1CC[C@H]2[C@@H]3[C@H](O)C[C@@H]4C[C@H](O)CC[C@]4(C)[C@H]3CC[C@]12C
SW-620
  GI50: > 100 µM (inactive)
SNB-19
  GI50: > 100 µM (inactive)
SN12C
  GI50: > 100 µM (inactive)
M14
  GI50: > 100 µM (inactive)
RPMI-8226
  GI50: > 100 µM (inactive)
Hs-578T
  GI50: > 100 µM (inactive)
T47D
  GI50: > 100 µM (inactive)
NCI/ADR-RES
  GI50: 45.9 µM (inactive)
DU-145
  GI50: > 100 µM (inactive)
OVCAR-3
  GI50: > 100 µM (inactive)
SK-MEL-5
  GI50: > 100 µM (inactive)
K562
  GI50: > 100 µM (inactive)
A498
  GI50: > 100 µM (inactive)
COLO 205
  GI50: > 100 µM (inactive)
UO-31
  GI50: > 100 µM (inactive)
OVCAR-5
  GI50: > 100 µM (inactive)
U-251
  GI50: > 100 µM (inactive)
HCT-15
  GI50: > 100 µM
HOP-92
  GI50: > 100 µM (inactive)
NCI-H522
  GI50: > 100 µM (inactive)
CCRF-CEM
  GI50: > 100 µM (inactive)
LOX IMVI
  GI50: > 100 µM (inactive)
SR
  GI50: > 100 µM (inactive)
HL-60
  GI50: > 100 µM (inactive)
OVCAR-4
  GI50: > 100 µM (inactive)
SK-MEL-28
  GI50: > 100 µM (inactive)
PC-3
  GI50: > 100 µM (inactive)
NCI-H226
  GI50: > 100 µM (inactive)
HCT-116
  GI50: > 100 µM (inactive)
MCF7
  GI50: > 100 µM (inactive)
MOLT-4
  GI50: > 100 µM (inactive)
HT-29
  GI50: > 100 µM (inactive)
RXF 393
  GI50: > 100 µM (inactive)
EKVX
  GI50: > 100 µM (inactive)
SF-295
  GI50: > 100 µM (inactive)
OVCAR-8
  GI50: > 100 µM (inactive)
HCC 2998
  GI50: > 100 µM (inactive)
UACC-257
  GI50: > 100 µM (inactive)
KM12
  GI50: > 100 µM (inactive)
HOP-62
  GI50: > 100 µM (inactive)
NCI-H460
  GI50: > 100 µM (inactive)
SK-OV-3
  GI50: > 100 µM (inactive)
SF-539
  GI50: > 100 µM (inactive)
MDA-N
  GI50: > 100 µM (inactive)
UACC-62
  GI50: > 100 µM (inactive)
SF-268
  GI50: > 100 µM (inactive)
CAKI-1
  GI50: > 100 µM (inactive)
ACHN
  GI50: > 100 µM (inactive)
MDA-MB-231
  GI50: > 100 µM (inactive)
Malme-3M
  GI50: > 100 µM (inactive)
TK-10
  GI50: > 100 µM (inactive)
IGROV-1
  GI50: > 100 µM (inactive)
BT-549
  GI50: > 100 µM (inactive)
A549
  GI50: > 100 µM (inactive)
MDA-MB-435
  GI50: > 100 µM (inactive)
SK-MEL-2
  GI50: > 100 µM (inactive)
786-0
  GI50: > 100 µM (inactive)
NCI-H23
  GI50: > 100 µM (inactive)
